Measured values from ChEMBL document CHEMBL5726350, “Histone demethylase inhibitors” (2017).

Experiments:
[1] = target: Lysine-specific demethylase 5A (Homo sapiens, UniProt P29375); assay: Enzymatic Assay: The enzymatic assay of Jarid1A activity is based upon Time Resolved-Fluorescence Resonance Energy Transfer (TR-FRET) detection. The ability of test compounds to inhibit the activity of Jarid1A was determined in 384-well plate format under the following reaction conditions: 1 nM Jarid1A, 300 nM H3K4me3-biotin labeled peptide (Anaspec cat #64357), 2 μM alpha-ketoglutaric acid in assay buffer of 50 mM HEPES, pH7.3, 0.005% Brij35, 0.5 mM TCEP, 0.2 mg/ml BSA, 50 μM sodium L-ascorbate, and 2 μM ammonium iron(II) sulfate. Reaction product was determined quantitatively by TR-FRET after the addition of detection reagent Phycolink Streptavidin-allophycocyanin (Prozyme) and Europium-anti-mono- or di-methylated histone H3 lysine 4 (H3K4me1-2) antibody (PerkinElmer) in the presence of 5 mM EDTA in LANCE detection buffer (PerkinElmer) at a final concentration of 25 nM and 1 nM, respectively.The assay reaction was initiated by the following: 2 μl of the mixture of 900 nM H3K4me3-biotin labeled peptide and 6 μM alpha-ketoglutaric acid with 2 μl of 11-point serial diluted inhibitor in 3% DMSO was added to each well of plate, followed by the addition of 2 μl of 3 nM Jarid1A to initiate the reaction.
Chain of Lysine-specific demethylase 5A (P29375 whole entry): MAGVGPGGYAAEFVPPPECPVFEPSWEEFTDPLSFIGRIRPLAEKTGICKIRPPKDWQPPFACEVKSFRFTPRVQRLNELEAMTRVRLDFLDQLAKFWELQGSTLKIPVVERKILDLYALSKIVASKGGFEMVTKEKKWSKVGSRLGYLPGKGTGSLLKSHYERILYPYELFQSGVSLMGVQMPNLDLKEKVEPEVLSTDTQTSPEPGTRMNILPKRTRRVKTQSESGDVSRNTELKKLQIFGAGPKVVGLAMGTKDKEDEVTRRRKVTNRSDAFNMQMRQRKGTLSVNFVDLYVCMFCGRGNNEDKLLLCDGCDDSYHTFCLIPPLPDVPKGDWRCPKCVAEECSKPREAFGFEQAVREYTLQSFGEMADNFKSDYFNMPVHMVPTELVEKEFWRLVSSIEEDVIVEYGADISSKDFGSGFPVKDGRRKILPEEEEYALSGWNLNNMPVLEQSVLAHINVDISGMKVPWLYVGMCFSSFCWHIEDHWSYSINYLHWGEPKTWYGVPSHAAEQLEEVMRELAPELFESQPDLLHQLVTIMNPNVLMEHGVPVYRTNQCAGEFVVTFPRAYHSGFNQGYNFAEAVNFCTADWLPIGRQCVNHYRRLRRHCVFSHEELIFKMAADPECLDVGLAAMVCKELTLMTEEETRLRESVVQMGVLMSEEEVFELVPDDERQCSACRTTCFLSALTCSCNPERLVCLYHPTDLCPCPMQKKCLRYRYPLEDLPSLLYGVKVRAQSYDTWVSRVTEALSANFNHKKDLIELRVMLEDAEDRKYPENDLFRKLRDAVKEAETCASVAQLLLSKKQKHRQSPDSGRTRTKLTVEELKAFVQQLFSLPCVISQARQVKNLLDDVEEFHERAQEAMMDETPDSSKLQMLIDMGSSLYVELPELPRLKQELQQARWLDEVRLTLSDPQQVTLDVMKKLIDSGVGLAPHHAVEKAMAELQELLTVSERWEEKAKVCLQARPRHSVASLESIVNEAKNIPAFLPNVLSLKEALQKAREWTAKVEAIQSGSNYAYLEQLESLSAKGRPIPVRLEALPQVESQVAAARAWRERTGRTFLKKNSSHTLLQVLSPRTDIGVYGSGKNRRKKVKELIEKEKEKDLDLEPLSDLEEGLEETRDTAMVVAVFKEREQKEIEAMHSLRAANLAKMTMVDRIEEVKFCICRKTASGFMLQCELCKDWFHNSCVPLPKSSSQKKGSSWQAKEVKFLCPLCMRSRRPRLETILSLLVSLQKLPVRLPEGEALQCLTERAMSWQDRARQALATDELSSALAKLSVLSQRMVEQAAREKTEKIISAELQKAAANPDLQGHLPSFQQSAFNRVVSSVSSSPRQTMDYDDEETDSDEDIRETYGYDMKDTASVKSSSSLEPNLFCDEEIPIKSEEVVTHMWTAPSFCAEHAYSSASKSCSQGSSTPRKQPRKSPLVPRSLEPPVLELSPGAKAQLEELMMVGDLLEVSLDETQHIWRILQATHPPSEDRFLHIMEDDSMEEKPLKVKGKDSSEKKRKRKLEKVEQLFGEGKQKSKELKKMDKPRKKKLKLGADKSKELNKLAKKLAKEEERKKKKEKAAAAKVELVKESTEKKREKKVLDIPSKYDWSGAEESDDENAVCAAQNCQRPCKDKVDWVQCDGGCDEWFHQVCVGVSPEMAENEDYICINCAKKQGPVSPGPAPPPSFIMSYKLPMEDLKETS

[2] = target: Lysine-specific demethylase 5B (Homo sapiens, UniProt Q9UGL1); assay: Enzymatic Assay: The ability of test compounds to inhibit the activity of Jarid1B was determined in 384-well plate format under the following reaction conditions: 0.8 nM Jarid1B, 300 nM H3K4me3-biotin labeled peptide (Anaspec cat #64357), 2 μM alpha-ketoglutaric acid in assay buffer of 50 mM HEPES, pH7.3, 0.005% Brij35, 0.5 mM TCEP, 0.2 mg/ml BSA, 50 μM sodium L-ascorbate, and 2 μM ammonium iron(II) sulfate. Reaction product was determined quantitatively by TR-FRET after the addition of detection reagent Phycolink Streptavidin-allophycocyanin (Prozyme) and Europium-anti-mono- or di-methylated histone H3 lysine 4 (H3K4me1-2) antibody (PerkinElmer) in the presence of 5 mM EDTA in LANCE detection buffer (PerkinElmer) at a final concentration of 25 nM and 1 nM, respectively.The assay reaction was initiated by the following: 2 μl of the mixture of 900 nM H3K4me3-biotin labeled peptide and 6 μM alpha-ketoglutaric acid with 2 μl of 11-point serial diluted inhibitor in 3% DMSO was added to each well of the plate, followed by the addition of 2 μl of 2.4 nM Jarid1B to initiate the reaction. The reaction mixture was incubated at room temperature for 30 minutes, and terminated by the addition of 6 μl of 5 mM EDTA in LANCE detection buffer containing 50 nM Phycolink Streptavidin-allophycocyanin and 2 nM Europium-anti-H3K4me1-2 antibody.
Chain of Lysine-specific demethylase 5B (Q9UGL1 whole entry): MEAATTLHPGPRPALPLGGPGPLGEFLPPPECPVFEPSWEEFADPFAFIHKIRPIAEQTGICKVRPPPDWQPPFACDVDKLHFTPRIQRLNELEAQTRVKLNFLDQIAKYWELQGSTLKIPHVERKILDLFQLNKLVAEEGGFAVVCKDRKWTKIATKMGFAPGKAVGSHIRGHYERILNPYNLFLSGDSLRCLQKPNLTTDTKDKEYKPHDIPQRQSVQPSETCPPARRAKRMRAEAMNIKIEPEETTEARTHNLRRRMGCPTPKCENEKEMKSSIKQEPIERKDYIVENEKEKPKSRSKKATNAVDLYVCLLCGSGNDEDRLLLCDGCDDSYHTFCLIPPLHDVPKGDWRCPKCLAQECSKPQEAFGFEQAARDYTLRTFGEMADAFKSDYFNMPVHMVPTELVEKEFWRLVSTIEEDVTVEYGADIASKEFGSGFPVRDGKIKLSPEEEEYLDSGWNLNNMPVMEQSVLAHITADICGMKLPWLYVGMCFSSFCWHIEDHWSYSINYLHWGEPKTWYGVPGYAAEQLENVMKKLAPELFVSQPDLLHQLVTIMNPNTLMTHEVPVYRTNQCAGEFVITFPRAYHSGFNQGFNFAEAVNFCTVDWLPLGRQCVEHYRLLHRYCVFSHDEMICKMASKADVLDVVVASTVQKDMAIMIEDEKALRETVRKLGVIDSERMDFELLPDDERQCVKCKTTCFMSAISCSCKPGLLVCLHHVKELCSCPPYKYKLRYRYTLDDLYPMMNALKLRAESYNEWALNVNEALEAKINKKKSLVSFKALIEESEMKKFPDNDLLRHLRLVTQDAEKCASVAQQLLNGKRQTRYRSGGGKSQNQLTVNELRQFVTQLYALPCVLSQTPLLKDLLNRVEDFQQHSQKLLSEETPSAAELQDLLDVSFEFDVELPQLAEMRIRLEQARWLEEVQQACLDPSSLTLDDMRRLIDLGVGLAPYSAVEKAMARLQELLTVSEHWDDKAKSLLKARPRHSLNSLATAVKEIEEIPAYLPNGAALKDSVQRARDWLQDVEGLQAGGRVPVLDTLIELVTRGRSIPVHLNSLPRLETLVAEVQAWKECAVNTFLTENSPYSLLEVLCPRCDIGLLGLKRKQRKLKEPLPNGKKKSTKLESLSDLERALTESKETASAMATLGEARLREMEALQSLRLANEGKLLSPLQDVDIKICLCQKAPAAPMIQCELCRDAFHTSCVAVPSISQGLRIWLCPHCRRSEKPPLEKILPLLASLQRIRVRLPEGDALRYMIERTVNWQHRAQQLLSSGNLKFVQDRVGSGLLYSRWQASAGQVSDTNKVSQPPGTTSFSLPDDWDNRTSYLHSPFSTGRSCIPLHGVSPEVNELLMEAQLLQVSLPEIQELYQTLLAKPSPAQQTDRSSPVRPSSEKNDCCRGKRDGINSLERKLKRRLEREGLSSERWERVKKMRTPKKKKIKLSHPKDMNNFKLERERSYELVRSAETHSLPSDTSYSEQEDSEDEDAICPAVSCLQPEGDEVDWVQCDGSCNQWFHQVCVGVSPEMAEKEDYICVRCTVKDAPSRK

[3] = target: T1, Lysine-specific demethylase 4C (Homo sapiens, UniProt Q9H3R0); assay: Enzymatic Assay: The ability of test compounds to inhibit the activity of JMJD2C was determined in 384-well plate format under the following reaction conditions: 0.3 nM JMJD2C, 300 nM H3K9me3-biotin labeled peptide (Anaspec cat #64360), 2 μM alpha-ketoglutaric acid in assay buffer of 50 mM HEPES, pH7.3, 0.005% Brij35, 0.5 mM TCEP, 0.2 mg/ml BSA, 50 μM sodium L-ascorbate, and 2 μM ammonium iron(II) sulfate. Reaction product was determined quantitatively by TR-FRET after the addition of detection reagent Phycolink Streptavidin-allophycocyanin (Prozyme) and Europium-anti-di-methylated histone H3 lysine 9 (H3K9me2) antibody (PerkinElmer) in the presence of 5 mM EDTA in LANCE detection buffer (PerkinElmer) at a final concentration of 50 nM and 1 nM, respectively.The assay reaction was initiated by the following: 2 μl of the mixture of 900 nM H3K9me3-biotin labeled peptide and 6 μM alpha-ketoglutaric acid with 2 μl of 11-point serial diluted inhibitor in 3% DMSO were added to each well of the plate, followed by the addition of 2 μl of 0.9 nM JMJD2C to initiate the reaction. The reaction mixture was incubated at room temperature for 30 minutes, and terminated by the addition of 6 μl of 5 mM EDTA in LANCE detection buffer containing 100 nM Phycolink Streptavidin-allophycocyanin and 2 nM Europium-anti-H3K9me2 antibody. […]
T1 sequence (Q9H3R0 whole entry): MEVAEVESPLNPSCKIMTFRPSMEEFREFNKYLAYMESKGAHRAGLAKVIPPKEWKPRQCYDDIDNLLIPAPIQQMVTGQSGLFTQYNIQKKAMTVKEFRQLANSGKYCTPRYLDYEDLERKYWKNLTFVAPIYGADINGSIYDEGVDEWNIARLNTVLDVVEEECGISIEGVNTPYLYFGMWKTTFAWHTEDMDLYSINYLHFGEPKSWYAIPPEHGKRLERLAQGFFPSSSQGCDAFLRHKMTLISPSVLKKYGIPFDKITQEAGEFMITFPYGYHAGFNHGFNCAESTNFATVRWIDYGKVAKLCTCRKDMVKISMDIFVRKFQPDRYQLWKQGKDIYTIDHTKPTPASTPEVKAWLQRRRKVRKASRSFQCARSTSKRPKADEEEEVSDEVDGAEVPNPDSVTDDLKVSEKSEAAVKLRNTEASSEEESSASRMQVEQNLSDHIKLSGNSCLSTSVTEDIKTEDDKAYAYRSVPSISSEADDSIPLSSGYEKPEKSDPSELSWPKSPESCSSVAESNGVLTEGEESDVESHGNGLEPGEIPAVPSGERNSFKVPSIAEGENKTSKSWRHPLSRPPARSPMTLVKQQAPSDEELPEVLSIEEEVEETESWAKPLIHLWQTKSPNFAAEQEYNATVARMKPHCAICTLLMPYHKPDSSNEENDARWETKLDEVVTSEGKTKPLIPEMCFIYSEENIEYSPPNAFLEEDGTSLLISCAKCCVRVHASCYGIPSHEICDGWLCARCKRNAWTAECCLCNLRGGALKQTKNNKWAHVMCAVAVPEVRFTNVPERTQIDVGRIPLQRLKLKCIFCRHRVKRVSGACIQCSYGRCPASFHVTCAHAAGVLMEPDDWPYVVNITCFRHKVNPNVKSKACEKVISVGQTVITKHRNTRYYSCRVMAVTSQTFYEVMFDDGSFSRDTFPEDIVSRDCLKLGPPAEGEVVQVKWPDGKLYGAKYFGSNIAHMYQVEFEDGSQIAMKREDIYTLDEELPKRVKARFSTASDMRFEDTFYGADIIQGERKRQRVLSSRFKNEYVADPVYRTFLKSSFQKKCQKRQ

IC50 [1]: < 100 nM
IC50 [2]: < 100 nM
IC50 [3]: < 100 nM
SMILES: CC1(C)CCN(C(=O)c2cc3nccc(C(=O)O)c3[nH]2)CC1
